One block for each molecule: values may come before it.
Key:
Female Rats [1] = assay: One-month exploratory nephrotoxicity study in female rats: urine calcium and phosphorus excretion; assay type: in vivo, rat; conditions: for Mean calcium excretion / Mean phosphorus excretion: female rats, 180 mg/kg daily
From the text: (§1) A study was undertaken to assess the potential nephrotoxicity of the compound of Formula 1 in rats. The rats were 6 week old females weighing 120.7 to 173.5 g at dosing initiation.
(§2) The study design is summarized below in Tables 1-3: […]

Female Rats [2] = assay: One-month exploratory nephrotoxicity study in female rats: serum PTH; assay type: in vivo, rat; conditions: for Mean serum PTH: female rats, 180 mg/kg daily
From the text: as §1, §2

Female Rats [3] = assay: One-month exploratory nephrotoxicity study in female rats: serum ADH; assay type: in vivo, rat; conditions: for Mean serum ADH: female rats, 180 mg/kg daily
From the text: as §1, §2

Female Rats [4] = assay: One-month exploratory nephrotoxicity study in female rats: urine volume and osmolality; assay type: in vivo, rat; conditions: for Mean urine osmolality / Mean urine volume: female rats, 180 mg/kg daily
From the text: as §1, §2

rat parathyroid glands = assay: Micrographic analysis (light and electron microscopy) of rat parathyroid glands; assay type: in vivo
From the text: Electron photomicrographs of the right parathyroid gland from two control rats sacrificed on Day 13 (Nos. 26F and 29F), two control rats sacrificed on Day 29 (Nos. 39F and 40F) and two Formula 1-dosed rats sacrificed on Day 29 (Nos. 76F and 77F) were examined for ultrastructural changes. […] A single rounded parathyroid epithelial cell in animal No. 77F appeared apoptotic with condensed chromatin and intact mitochondria and contained numerous vesicles similar to those previously described. The apoptotic cell is consistent with the single cell necrosis observed at the light microscopic level.

[5] = molecular target: Farnesyl Protein Transferase (FPT) (Homo sapiens, UniProt P49356); conditions: cited from earlier work
Ras-3T3 tumors = conditions: mice bearing Ras-3T3 tumors with hypercalcemia (MAH); cited from earlier work
[6] = within 6 days of dosing at 180 mg/kg, rats
[7] = electron photomicrographs, dosed rats
[8] = electron photomicrographs, two dosed rats sacrificed on Day 29

exhaustion vacuoles in parathyroid cells (rat parathyroid glands; [7]): no evidence of exhaustion vacuoles
number of myeloid bodies and fat globules in parathyroid cells (rat parathyroid glands; [8]): minimally increased
Microscopic evaluation of the parathyroid glands (rat parathyroid glands; rats dosed with 180 mg/kg): cytoplasmic vacuolation
Structure (SMILES): NC(=O)N1CCC(CC(=O)N2CCC(C3c4ncc(Br)cc4CCc4cc(Cl)cc(Br)c43)CC2)CC1 (centres unmarked) [Formula 1]
Mean calcium excretion (Female Rats [1]; Day 2, urine): 5.65 mg/kg/24 hours
Mean phosphorus excretion (Female Rats [1]; Day 2, urine): 55.9 mg/kg/24 hours
Mean calcium excretion (Female Rats [1]; Day 6, urine): 33 mg/kg/24 hours
Mean phosphorus excretion (Female Rats [1]; Day 6, urine): 13.5 mg/kg/24 hours
Mean calcium excretion (Female Rats [1]; Day 13, urine): 20.7 mg/kg/24 hours
Mean phosphorus excretion (Female Rats [1]; Day 13, urine): 12.1 mg/kg/24 hours
Mean calcium excretion (Female Rats [1]; Day 29, urine): 19.2 mg/kg/24 hours
Mean phosphorus excretion (Female Rats [1]; Day 29, urine): 7.3 mg/kg/24 hours
calcium excretion in the urine (change vs control) (Female Rats [1]; [6]): increased
phosphorus excretion (change vs control) (Female Rats [1]; [6]): decreased
Mean serum PTH (Female Rats [2]; Day 2): 60 ng/mL
Mean serum PTH (Female Rats [2]; Day 6): 51 ng/mL
Mean serum PTH (Female Rats [2]; Day 13): 68 ng/mL
Mean serum PTH (Female Rats [2]; Day 29): 44 ng/mL
serum PTH (change vs control) (Female Rats [2]; rats dosed at 180 mg/kg): decrease
rats evaluated with lower PTH serum concentrations than the control rats (Female Rats [2]; within 28 days, 180 mg/kg): 5 out of 5
Mean serum ADH (Female Rats [3]; Day 2): 350 pg/mL
Mean serum ADH (Female Rats [3]; Day 6): 513 pg/mL
Mean serum ADH (Female Rats [3]; Day 13): 547 pg/mL
Mean serum ADH (Female Rats [3]; Day 29, water consumption had increased at this timepoint): 616^1 pg/ml
antidiuretic hormone (ADH) concentrations (change vs control) (Female Rats [3]; rats dosed at 180 mg/kg): increases
Mean urine osmolality (Female Rats [4]; Day 2): 646 mOsm/kg
Mean urine volume (Female Rats [4]; Day 2): 124 ml/kg/24 hours
Mean urine osmolality (Female Rats [4]; Day 6): 646 mOsm/kg
Mean urine volume (Female Rats [4]; Day 6): 195 ml/kg/24 hours
Mean urine osmolality (Female Rats [4]; Day 13): 655 mOsm/kg
Mean urine volume (Female Rats [4]; Day 13): 177 ml/kg/24 hours
Mean urine osmolality (Female Rats [4]; Day 29): 606 mOsm/kg
Mean urine volume (Female Rats [4]; Day 29): 166 ml/kg/24 hours
condition suggested by urine osmolality, urine volume and ADH changes (Female Rats [4]; rats dosed at 180 mg/kg): nephrogenic diabetes insipidus
urine osmolality (change vs control) (Female Rats [4]; rats dosed at 180 mg/kg): Decreases
urine volume (change vs control) (Female Rats [4]; rats dosed at 180 mg/kg): increases
changes indicating chronic stimulation of parathyroid (rough endoplasmic reticulum, Golgi apparatus) (rat parathyroid glands; [7]): no changes indicating chronic stimulation
Ultrastructure of parathyroid chief cells: cell borders (rat parathyroid glands; [8]): less conspicuous cell borders with fewer, less distinctive cytoplasmic projections
Ultrastructure of parathyroid chief cells: cytoplasm content (rat parathyroid glands; [8]): numerous, generally membrane-bound, vesicles

Structure (SMILES): NC(=O)N1CCC(CC(=O)N2CCC([C@H]3c4ncc(Br)cc4CCc4cc(Cl)cc(Br)c43)CC2)CC1 [SCH66336]
FPT mediated farnesylation of the Ras protein [5]: inhibit

Structure (SMILES): COC(=O)[C@H](CCSC)NC(=O)[C@H](/C=C\[C@@H](/C=C/[C@@H](N)CS)C(C)C)Cc1ccccc1 [Formula B-1086]
serum PTHRP levels (Ras-3T3 tumors): reduction
serum calcium (Ras-3T3 tumors): normalization

Reference: patent US20040082588A1, “Methods for treating disorders of calcium homeostasis” (Schering Corporation, priority 2002, published 2004)
